Reference: patent US12365709B2, “Immunomodulatory peptide” (INSTITUT NATIONAL UNI[…]-FRANCOIS CHAMPOLLION, priority 2017, dated 2025)
No end group written: not given here.

Key:
[1] = system: macrophages derived from human monocytes; assay: Removal of C. albicans by macrophages derived from human monocytes (CFU); assay type: cell-based; conditions: macrophages treated with peptide 24 hours, then C. albicans 0.3 yeasts per macrophage, 4 hours; vs untreated
Description: The macrophages derived from human monocytes have been treated, or not, with the peptide P17 or fragments of it then incubated at 37° C. for 24 hours. These cells have been incubated for 40 minutes at 37° C. with C. albicans (at a ratio of 0.3 yeasts per macrophage) and the non-bound yeasts are removed by washing. These macrophages are thus incubated at 37° C. for 4 hours. After incubation, the environment has been removed and the cells have been lysed. The units forming colonies (CFU) of C. albicans have been determined on Sabouraud boxes after spreading and culturing for 48 hours at 37° C.

[2] = system: macrophages derived from human monocytes; assay: Production of ROS by macrophages derived from human monocytes in response to C. albicans (luminol chemiluminescence); assay type: cell-based; conditions: macrophages treated 24 hours; yeast ratio per macrophage 3:1; vs untreated
From the text: To analyse the production of ROS, the macrophages derived from human monocytes have been treated, or not, with the peptide P17, P17, non-amidated, or with the following P17 fragments, P17(1-5), P17(1-7), P17(1-9), P17(1-11), P17(3-13), P17(5-13), P17(7-13) and P17(9-13); the fragments P17(1-5), P17(1-7), P17(1-9), P17(1-11) not being amidated at the C-terminal […] and the fragments P17(3-13), P17(5-13), P17(7-13) and P17(9-13) being amidated at the C-terminal. Then, the macrophages derived from human monocytes thus treated have been incubated at 37° C. for 24 hours. The production of reactive derivatives of oxygen (ROS) has been measured by chemiluminescence in the presence of 5-amino-2,3-dihydro-1,4-phthalazinedione (luminol) (EnVision; PerkinElmer). The chemiluminescence generation has been continually measured for 1 hour 30 minutes after incubation of cells with luminol (66 μM) in the presence, or not, of C. albicans (yeast ratio per macrophage: 3:1).

[3] = system: macrophages derived from human monocytes; assay: Binding and phagocytosis of C. albicans by macrophages derived from human monocytes; assay type: cell-based; conditions: macrophages treated 24 hours, GFP yeasts, vs untreated
Description: To analyse the binding and the phagocytosis of C. albicans, macrophages derived from human monocytes have been treated, or not, with the peptide P17, then incubated at 37° C. for 24 hours. The macrophages derived from human monocytes have been brought together with the yeasts marked GFP (ratio 1/6) then incubated at 4° C. for 20 minutes, in order to evaluate the binding. The phagocytosis has been evaluated after 1 hour of incubation at 37° C. The quantity of C. albicans bound or ingested by macrophages derived from human monocytes has been determined by measuring the fluorescence by using a fluorimeter (PerkinElmer EnVision).

[4] = system: macrophages derived from human monocytes; assay: Production of IL-1β, TNFα, IL-10 and IL-12 by macrophages derived from human monocytes in response to C. albicans (ELISA); assay type: cell-based; conditions: P17 24 hours then C. albicans 3:1 for 8 hours
Description: Macrophages derived from human […] have been stimulated with the peptide P17 for 24 hours, then these macrophages activated by the peptide P17 have been stimulated with C. albicans at a yeast per macrophage ratio of 3:1 for 8 hours. The production of IL-1β, TNFα, IL-10 and IL-12 in cell supernatants has been determined by ELISA (OptiElA BD Biosciences).

C-type lectin receptors = assay: Protein expression of C-type lectin receptors (flow cytometry); assay type: cell-based, human; conditions: P17 200 μg/ml, 24 hours
Description: To analyse the protein level of C-type lectin receptors, the macrophages derived from human monocytes have been treated, or not, with the peptide P17 (200 μg/ml) then incubated at 37° C. for 24 hours. The cells collected have been centrifugated at 1500 rpm for 10 minutes and […] have been suspended in the PBS supplemented with 1% foetal calf serum (FCS). The cells have been marked with antibodies coupled with different fluorochromes directed against the Dectin-1 receptor (mAb; R&D FAB1859C-100, 1/40), DC-SIGN (mAb; BD Biosciences 551 265, 1/20) CD16 (mAb; PNIM 0814, 1/20), CD36 (mAb; BD Biosciences 550 956, 1/40) and the mannose receptor (specific MR (mannose receptor) ligand) conjugated FITC (Sigma A7790, 1 mg/ml 1/100)). The analysis has been carried out by flow cytometry (Becton Dickinson FACScalibur) over a population of 10000 cells.

C. albicans = assay: Experimental gastrointestinal Candida murine model; assay type: in vivo; conditions: P17 10 μg per mouse i.p., vs untreated mice
Description: For in vivo experiments, a gastrointestinal infection with the C. albicans strain 98/26135 has been established by feeding with 50×10^6 of C. albicans per mouse (n=8 per group). No antibiotic or immunosuppressant treatment has been used to facilitate the infection of mucous membranes of the oral cavity and of the gastrointestinal tract. The mice have been treated intraperitoneally (i.p.) with the peptide P17 (10 μg per mouse) or with a saline solution for control groups, 1 day before the injection with C. albicans, 1 day after infection and then every 2 days (5 injections). The body weight of each mouse has been recorded daily. On the 8th day after treatment (7 days after infection), all mice have been euthanised by asphyxiation with CO2.
The oesophagus, the stomach, the caecum and the liver have been removed aseptically to evaluate the colonisation by C. albicans. The peritoneal macrophages of the mice have been sampled and the ex vivo capacities thereof to remove and to phagocytose Candida albicans have been determined. The production of ROS, IL-(3 and IL-12 by these macrophages in response to Candida albicans have also been evaluated.

EL4 tumour cells = assay: Number of lymphoma T tumour cells (EL4) in the presence of murine macrophages; assay type: cell-based; conditions: co-culture with macrophages polarised by P17; vs untreated macrophages
Description: Peritoneal murine macrophages have been treated, or not, with the peptide P17 then incubated at 37° C. for 24 hours. These macrophages have been incubated for 40 minutes at 37° C. with luminescent lymphoma T cells (EL4-luc) and unbound cells are removed by washing. These macrophages are thus incubated at 37° C. for 4 hours. After incubation, the number of lymphoma T cells (EL4-luc) is evaluated by chemiluminescence.

[5] = system: peritoneal murine macrophages; assay: Production of ROS by murine macrophages in response to murine lymphoma T tumour cells (EL4); assay type: cell-based; conditions: murine macrophages treated with P17 24 hours
Description: To analyse the production of ROS, peritoneal murine macrophages have been treated, or not, with the peptide P17 then incubated at 37° C. for 24 hours. The production of reactive derivatives of oxygen (ROS) has been measured by chemiluminescence in the presence of 5-amino-2,3-dihydro-1,4-phthalazinedione (luminol) (EnVision; PerkinElmer). The chemiluminescence generation has been continually measured for 1 hour 30 minutes after incubation of cells with luminol […] in the presence, or not, of EL4 lymphoma T tumour cells.

| Substance | removal of C. albicans by macrophages [1] | production of ROS in response to C. albicans [2] | further results |
| --- | --- | --- | --- |
| LFKEILEKI (LFKEILEKI-OH) [P17(1-9)] | does not induce the production of ROS, nor the removal of Candida albicans | does not induce the production of ROS | – |
| EKIKAKL [P17(7-13)] | – | Only the fragments P17(3-13) and P17(5-13) conserve the activity | – |
| KEILEKIKAKL [P17(3-13)] | activity close to that of P17 | conserve the activity | – |
| ILEKIKAKL [P17(5-13)] | activity close to that of P17 | conserve the activity | – |
| LFKEILEKIKA (LFKEILEKIKA-OH) [P17(1-11)] | does not induce the production of ROS, nor the removal of Candida albicans | does not induce the production of ROS | – |
| LFKEI (LFKEI-OH) [P17(1-5)] | does not induce the production of ROS, nor the removal of Candida albicans | does not induce the production of ROS | – |
| LFKEILE (LFKEILE-OH) [P17(1-7)] | does not induce the production of ROS, nor the removal of Candida albicans | does not induce the production of ROS | – |
| LFKEILEKIKAKL [non-amidated P17] (LFKEILEKIKAKL-OH; listed as Tetramorium bicarinatum) | – | C-terminal amidation of P17 is essential to the pro-inflammatory activity | – |
| LFKEILEKIKAKL [P17] (LFKEILEKIKAKL-NH2) | considerably increases the capacity of human macrophages to remove in vitro C. albicans | higher production of ROS | capacity to recognise (binding) C. albicans ([3]; 4° C. for 20 minutes): greater capacity to recognise; capacity to phagocytose C. albicans ([3]; 1 hour at 37° C.): greater capacity to recognise and to phagocytose C. albicans; production of IL-1β [4]: higher production; production of TNFα [4]: higher production; expression of C-type lectin receptors on the surface of macrophages (C-type lectin receptors): overexpression of C-type lectin receptors; loss of body weight (C. albicans; mice with gastrointestinal candidiasis): lesser loss of weight; gastrointestinal colonisation by Candida albicans (C. albicans; mice): significantly lower; number of EL4 tumour cells (EL4 tumour cells): decreases significantly; production of ROS in response to EL4 tumour cells [5]: increased production of ROS |
| IKAKL [P17(9-13)] | – | Only the fragments P17(3-13) and P17(5-13) conserve the activity | – |
